Assays:
[1] = Effective passive permeability of the compound at 100 uM at pH 7.4 after 18 hrs by UHPLC-UV based PAMPA-BBB assay; assay type: ADME; conditions: read-out: Peff
[2] = Effective passive permeability of the compound assessed as membrane retention at 100 uM at pH 7.4 after 18 hrs by UHPLC-UV based PAMPA-BBB assay; assay type: ADME; conditions: pH 7.4, 18 h
[3] = biological target: Histone deacetylase 1/2/3 (Homo sapiens, UniProt Q13547+O15379+Q92769); assay type: protein assay
[4] = biological target: T1, Histone deacetylase 1 (Homo sapiens, UniProt Q13547); experiment: biochemical
T1 sequence (Q13547 whole entry): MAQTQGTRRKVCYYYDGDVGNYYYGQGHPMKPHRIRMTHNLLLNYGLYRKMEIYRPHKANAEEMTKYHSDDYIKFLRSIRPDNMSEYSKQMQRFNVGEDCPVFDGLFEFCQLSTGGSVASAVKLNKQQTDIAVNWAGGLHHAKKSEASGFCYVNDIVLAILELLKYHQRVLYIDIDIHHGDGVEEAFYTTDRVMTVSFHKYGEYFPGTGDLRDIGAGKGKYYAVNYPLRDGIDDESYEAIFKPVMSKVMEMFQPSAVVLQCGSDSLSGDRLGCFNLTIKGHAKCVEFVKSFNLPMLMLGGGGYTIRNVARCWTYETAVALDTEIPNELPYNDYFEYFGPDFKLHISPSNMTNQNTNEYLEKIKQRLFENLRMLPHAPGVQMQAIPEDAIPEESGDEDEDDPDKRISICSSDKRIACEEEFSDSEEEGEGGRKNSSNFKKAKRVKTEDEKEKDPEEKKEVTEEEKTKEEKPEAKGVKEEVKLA

[5] = Inhibition of HDAC in human SHSY5Y cells using MAL as substrate after 8 hrs by UHPLC-ESI-MS/MS analysis; assay type: cell-based; conditions: SH-SY5Y
[6] = biological target: T2, Protein deacetylase HDAC6 (Homo sapiens, UniProt Q9UBN7); experiment: Inhibition of human recombinant HDAC6 expressed in baculovirus infected insect cells using BATCP as substrate after 4 hrs by UHPLC-ESI-MS/MS analysis
T2 sequence (Q9UBN7 whole entry): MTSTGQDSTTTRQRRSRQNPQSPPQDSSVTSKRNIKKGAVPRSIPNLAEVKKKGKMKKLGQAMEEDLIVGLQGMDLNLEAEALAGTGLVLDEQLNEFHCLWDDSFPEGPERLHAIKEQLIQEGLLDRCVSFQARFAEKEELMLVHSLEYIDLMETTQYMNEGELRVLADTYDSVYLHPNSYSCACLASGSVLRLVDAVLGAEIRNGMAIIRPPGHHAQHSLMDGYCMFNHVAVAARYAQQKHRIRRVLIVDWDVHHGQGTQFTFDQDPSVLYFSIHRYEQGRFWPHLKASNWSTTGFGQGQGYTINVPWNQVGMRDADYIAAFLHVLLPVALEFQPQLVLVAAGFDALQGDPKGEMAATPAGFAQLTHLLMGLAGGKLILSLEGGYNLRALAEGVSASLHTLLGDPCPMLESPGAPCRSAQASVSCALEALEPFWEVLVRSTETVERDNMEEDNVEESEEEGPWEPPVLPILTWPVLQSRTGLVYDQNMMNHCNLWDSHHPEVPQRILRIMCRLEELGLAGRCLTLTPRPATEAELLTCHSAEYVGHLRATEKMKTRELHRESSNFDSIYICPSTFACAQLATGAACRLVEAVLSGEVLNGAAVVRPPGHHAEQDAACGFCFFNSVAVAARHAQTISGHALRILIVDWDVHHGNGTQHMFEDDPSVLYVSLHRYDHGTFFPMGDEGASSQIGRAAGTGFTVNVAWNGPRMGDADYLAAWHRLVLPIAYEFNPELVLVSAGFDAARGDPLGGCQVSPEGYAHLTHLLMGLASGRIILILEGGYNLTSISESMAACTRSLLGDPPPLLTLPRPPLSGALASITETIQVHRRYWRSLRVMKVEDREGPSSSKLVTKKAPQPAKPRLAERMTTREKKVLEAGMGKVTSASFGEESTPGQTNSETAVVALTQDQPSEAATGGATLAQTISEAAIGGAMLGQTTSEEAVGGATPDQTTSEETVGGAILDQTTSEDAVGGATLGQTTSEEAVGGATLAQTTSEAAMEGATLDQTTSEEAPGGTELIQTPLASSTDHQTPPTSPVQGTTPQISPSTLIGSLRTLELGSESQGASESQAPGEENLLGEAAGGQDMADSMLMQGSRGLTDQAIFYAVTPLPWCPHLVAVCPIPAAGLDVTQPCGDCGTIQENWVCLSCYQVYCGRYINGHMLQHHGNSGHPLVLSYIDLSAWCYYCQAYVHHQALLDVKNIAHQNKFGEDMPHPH

[7] = biological target: T2, Protein deacetylase HDAC6; experiment: Inhibition of HDAC6 in human SHSY5Y cells using BATCP as substrate after 8 hrs by UHPLC-ESI-MS/MS analysis; assay type: cell-based, SH-SY5Y
[8] = biological target: T1, Histone deacetylase 1

| Compound | Papp at 18 h, 100 µM [1] [×10⁻⁶ cm/s] | R% [2] [%] | IC50 [3] [nM] | IC50 [4] [nM] | IC50 [5] [nM] | IC50 [6] [nM] | IC50 [7] [nM] | IC50 [8] [nM] |
| --- | --- | --- | --- | --- | --- | --- | --- | --- |
| CC(C)(C)OC(=O)ON(C(=O)CCCCCCC(=O)N(OC(=O)OC(C)(C)C)C(=O)OC(C)(C)C)C(=O)OC(C)(C)C | < 2 | < 1 |  |  |  |  |  |  |
| O=C(CCCCCc1ccc2c(c1)OCO2)NO | 8.7 | 6.8 | 188.1 | 560 | 310 | 36.7 | 164 | 973 |
| O=C(CCCCCCC(=O)NO)NO [SUBEROHYDROXAMIC ACID] | < 2 | < 1 |  |  |  |  |  |  |
| CC(/C=C/C(=O)NO)=C\[C@@H](C)C(=O)c1ccc(N(C)C)cc1 [TRICHOSTATIN] |  |  |  |  | 9.1 |  |  |  |
| CN1CCc2c(c3ccccc3n2Cc2ccc(C(=O)NO)cc2)C1 [TUBASTATIN A] | 6.8 | 70.8 |  |  | 122 |  |  |  |

Source: ChEMBL document CHEMBL3860072, “Synthesis of a selective HDAC6 inhibitor active in neuroblasts” (Bioorg Med Chem Lett, 2016)
